Data taken from patent US9029409B2, “Isoxazolines as therapeutic agents” (AbbVie Inc., priority 2011, dated 2015).

These molecules were tested against T1, recombinant human MMP13 catalytic domain (CD) (Homo sapiens, UniProt P45452) (assay: MMP-13 catalytic domain FRET enzyme assay). Conditions: recombinant human MMP-13 catalytic domain.
T1 construct: catalytic domain (CD) construct encompassing residues 20-274 (SWISS-PROT P45452); made in house
Format: biochemical
Experimental: A recombinant human MMP13 catalytic domain (CD) construct encompassing residues 20-274 (SWISS-PROT P45452) was generated by synthetic gene methods and bacterial expression. MMP-13 activity assays were performed using the recombinant human MMP-13 CD at a 0.4 nM concentration and the fluorogenic substrate (QXL-520)-K-P-L-A˜Nva-Dap(5-FAM)-A-R-NH2 (Anaspec cat #60554-01, San Jose, Calif.) at a 0.25 μM concentration in assay buffer containing […], pH 7.5, 10 mM CaCl2, 150 mM NaCl, 0.05% Brij 35. The assay is based on the cleavage of this substrate by MMP-13, resulting in decrease of FRET between the donor-acceptor pair and subsequent fluorescence enhancement. The assays were carried out in 384-well plates (Greiner cat #781076, Germany) for 60 min at RT. After the incubation period, the reaction was quenched by the addition of 5 μL of 500 mM EDTA (100 mM final concentration) (Rankem, Cat #E0120, India) mixed well and the rate of substrate hydrolysis was determined by monitoring change in fluorescence at excitation and emission wavelengths of 485 nm and 535 nm respectively. Fluorescence was measured on a Victor V5 plate reader (Perkin Elmer, Turku, Finland). The test compounds used for assessing the potency of inhibition of MMP-13 activity were dissolved in DMSO (final DMSO concentration in the assay was 5%). Selected compounds were also screened against full length MMP13 (R&D Systems (Cat. No. 511-MM-010), Minneapolis, Minn.) at 2 nM concentration using the same fluorogenic substrate mentioned above. The enzyme was activated using 1 m Mp-aminophenylmercuric acetate—APMA (Cat #A-9563, Sigma, Germany).
Data analysis: The percent inhibition of the enzyme activity in presence of test compounds were calculated using the equation, percent (%) Inhibition=100−[(Fi/Fc)*100] where Fc is the fluorescence corresponding to initial enzyme activity and Fi is the fluorescence corresponding to the enzyme activity in presence of inhibitor. The IC50 values were calculated by fitting the dose-response data to a sigmoidal curve fitting equation using Graph Pad prism software (Version 5, La Jolla, Calif.).
MMP13 Catalytic Domain (CD) Potency of the Described Examples Determined Using Time Resolved Fluorescence Resonance Energy Transfer (FRET) Enzyme Assays: […]

Structure (SMILES) | IC50 [nM]
COc1ccc(CNC(=O)c2cc(C3=NOC(c4ccc(OC)cc4)C3)nc(C)n2)cc1 (stereo not drawn) | 10 to 100
COc1ccc(CNC(=O)c2cc(C3=NOC(c4ccc(N5CCOCC5)cc4)C3)nc(C)n2)cc1 (stereo not drawn) | 10 to 100
COc1ccc(CNC(=O)c2cc(C3=NOC(c4ccc(N5CCCCC5)cc4)C3)nc(C)n2)cc1 (stereo not drawn) | 100 to 1000
COc1ccc(CNC(=O)c2cc(C3=NOC(c4ccc(N(C)C)cc4)C3)nc(C)n2)cc1 (stereo not drawn) | 100 to 1000
COc1ccc(CNC(=O)c2cc(C3=NOC(c4cccc(OCCO)c4)C3)nc(C)n2)cc1 (stereo not drawn) | 10 to 100
COc1ccc(CNC(=O)c2cc(C3=NOC(c4ccccn4)C3)nc(C)n2)cc1 (stereo not drawn) | 100 to 1000
COc1ccc(CNC(=O)c2cc(C3=NOC(C4CCCCC4)C3)nc(C)n2)cc1 (stereo not drawn) | 10 to 100
COc1ccc(CNC(=O)c2cc(C3=NOC(c4ccc(CO)cc4)C3)nc(C)n2)cc1 (stereo not drawn) | 10 to 100
Cc1nc(C(=O)NCc2ccc(F)c(C)c2)cc(C2=NOC(C3CCN(S(C)(=O)=O)CC3)C2)n1 (stereo not drawn) | < 10
COc1cc(CNC(=O)c2cc(C3=NOC(c4cnccn4)C3)nc(C)n2)ccc1F (stereo not drawn) | 10 to 100
Cc1nc(C(=O)NCc2ccc(F)c(F)c2)cc(C2=NOC(c3ccccn3)C2)n1 (stereo not drawn) | 10 to 100
Cc1nc(C(=O)NCc2ccc(F)c(F)c2)cc(C2=NOC(C3CCN(S(C)(=O)=O)CC3)C2)n1 (stereo not drawn) | 10 to 100
Cc1nc(C(=O)NCc2ccc(F)cc2)cc(C2=NOC(c3ccccn3)C2)n1 (stereo not drawn) | 10 to 100
COc1cccc(CNC(=O)c2cc(C3=NOC(c4ccccn4)C3)nc(C)n2)c1 (stereo not drawn) | 10 to 100
Cc1nc(C(=O)NCc2ccc(F)cc2)cc(C2=NOC(C3CCN(S(C)(=O)=O)CC3)C2)n1 (stereo not drawn) | < 10
Cc1nc(C(=O)NCc2ccc(F)cc2)cc(C2=NOC(C3CCN(C(=O)CO)CC3)C2)n1 (stereo not drawn) | 10 to 100
COc1cccc(CNC(=O)c2cc(C3=NOC(C4CCN(S(C)(=O)=O)CC4)C3)nc(C)n2)c1 (stereo not drawn) | < 10
COc1cc(CNC(=O)c2cc(C3=NOC(c4ccc(C#N)cn4)C3)nc(C)n2)ccc1F (stereo not drawn) | < 10
COc1cc(CNC(=O)c2cc(C3=NOC(c4ccc(CO)cn4)C3)nc(C)n2)ccc1F (stereo not drawn) | < 10
CNC(=O)c1ccc(C2CC(c3cc(C(=O)NCc4ccc(F)c(OC)c4)nc(C)n3)=NO2)nc1 (stereo not drawn) | 10 to 100
COc1cc(CNC(=O)c2cc(C3=NOC(c4ccc(C(C)O)cn4)C3)nc(C)n2)ccc1F (stereo not drawn) | < 10
COc1cc(CNC(=O)c2cc(C3=NOC(c4ccc(S(C)(=O)=O)cn4)C3)nc(C)n2)ccc1F (stereo not drawn) | < 10
COc1cc(CNC(=O)c2cc(C3=NOC(c4ccc(=O)n(C)c4)C3)nc(C)n2)ccc1F (stereo not drawn) | 10 to 100

Structure (SMILES) | IC50 [nM]
COc1cc(CNC(=O)c2cc(C3=NOC(c4ccc(C(C)=O)cn4)C3)nc(C)n2)ccc1F (stereo not drawn) | < 10
COc1cc(CNC(=O)c2cc(C3=NOC(c4ccc(-c5nc(C)no5)cn4)C3)nc(C)n2)ccc1F (stereo not drawn) | < 10
Cc1nc(C(=O)NCc2ccc(F)cc2)cc(C2=NO[C@H]([C@H]3CO[C@H](CO)CO3)C2)n1 | 10 to 100
Cc1nc(C(=O)NCc2ccc(F)cc2)cc(C2=NO[C@@H]([C@H]3CO[C@H](CO)CO3)C2)n1 | > 1000
COc1ccc(CNC(=O)c2cc(C3=NO[C@H]([C@H]4CO[C@H](CO)CO4)C3)nc(C)n2)cc1 | 10 to 100
COc1ccc(CNC(=O)c2cc(C3=NO[C@@H]([C@H]4CO[C@H](CO)CO4)C3)nc(C)n2)cc1 | > 1000
COc1cccc(CNC(=O)c2cc(C3=NO[C@@H]([C@H]4CO[C@H](CO)CO4)C3)nc(C)n2)c1 | > 1000
COc1ccc(C2CC(c3ccnc(C(=O)NCc4cccc(OC)c4)c3)=NO2)cc1 (stereo not drawn) | 10 to 100
COc1cccc(CNC(=O)c2cc(C3=NOC(C)(c4ccc(Cl)cc4)C3)ccn2)c1 (stereo not drawn) | > 1000
COc1cccc(CNC(=O)c2cc(C3=NOC(c4ccc(C(=O)O)cc4)C3)ccn2)c1 (stereo not drawn) | < 10
COc1ccc(CNC(=O)c2cc(C3=NOC(c4ccc(CN(C)C)cc4)C3)ccn2)cc1 (stereo not drawn) | > 1000
COc1ccc(CNC(=O)c2cc(C3=NOC(c4ccc(C(=O)O)cc4)C3)ccn2)cc1 (stereo not drawn) | 10 to 100
COc1ccc(CNC(=O)c2cc(C3=NOC(C)(c4ccc(Cl)cc4)C3)ccn2)cc1 (stereo not drawn) | 100 to 1000
COc1ccc(CNC(=O)c2cc(C3=NOC(C)(c4ccccc4)C3)ccn2)cc1 (stereo not drawn) | > 1000
COc1ccc(CNC(=O)c2cc(C3=NOC(c4cnccn4)C3)ccn2)cc1 (stereo not drawn) | > 1000
COc1ccc(CNC(=O)c2cc(C3=NOC(c4ccc(OC)cc4)C3)ccn2)cc1 (stereo not drawn) | 100 to 1000
COc1cccc(CNC(=O)c2cc(C3=NO[C@H]([C@H]4CO[C@H](CO)CO4)C3)nc(C)n2)c1 | 10 to 100
COc1cccc(CNC(=O)c2cc(C3=NO[C@@H]([C@@H]4CO[C@@H](CO)CO4)C3)nc(C)n2)c1 | > 1000
COc1cccc(CNC(=O)c2cc(C3=NO[C@H]([C@@H]4CO[C@@H](CO)CO4)C3)nc(C)n2)c1 | 10 to 100
Cc1nc(C(=O)NCc2ccc(F)cc2)cc(C2=NO[C@@H]([C@@H]3CO[C@@H](CO)CO3)C2)n1 | > 1000
Cc1nc(C(=O)NCc2ccc(F)cc2)cc(C2=NO[C@H]([C@H]3CO[C@@H](CO)CO3)C2)n1 | 10 to 100
COc1cc(CNC(=O)c2cc(C3=NO[C@H]([C@H]4CO[C@H](CNC(C)=O)CO4)C3)nc(C)n2)ccc1F | < 10
COc1cc(CNC(=O)c2cc(C3=NO[C@H]([C@H]4CO[C@H](CNS(C)(=O)=O)CO4)C3)nc(C)n2)ccc1F | < 10

Next, values leading:

IC50 [nM] | Structure (SMILES)
10 to 100 | Cc1nc(C(=O)NCc2ccc(F)c(C)c2)cc(C2=NOC(C3CCN(C(=O)CO)CC3)C2)n1 (stereo not drawn)
10 to 100 | COc1cc(CNC(=O)c2cc(C3=NOC(C4CCN(C(=O)C(C)(C)O)CC4)C3)nc(C)n2)ccc1F (stereo not drawn)
10 to 100 | COc1cc(CNC(=O)c2cc(C3=NOC(C4CCN(S(=O)(=O)C5CC5)CC4)C3)nc(C)n2)ccc1F (stereo not drawn)
10 to 100 | CC(=O)N1CCC(C2CC(c3cc(C(=O)NCc4ccc(F)c(F)c4)nc(C)n3)=NO2)CC1 (stereo not drawn)
10 to 100 | Cc1nc(C(=O)NCc2ccc(F)c(F)c2)cc(C2=NOC(C3CCN(C(=O)CO)CC3)C2)n1 (stereo not drawn)
< 10 | CCS(=O)(=O)N1CCC(C2CC(c3cc(C(=O)NCc4ccc(F)c(OC)c4)nc(C)n3)=NO2)CC1 (stereo not drawn)
10 to 100 | COc1cc(CNC(=O)c2cc(C3=NOC(C4CCN(C(=O)C(C)C)CC4)C3)nc(C)n2)ccc1F (stereo not drawn)
10 to 100 | CC(=O)N1CCC(C2CC(c3cc(C(=O)NCc4ccc(F)c(Cl)c4)nc(C)n3)=NO2)CC1 (stereo not drawn)
10 to 100 | Cc1nc(C(=O)NCc2ccc(F)c(Cl)c2)cc(C2=NOC(C3CCN(C(=O)CO)CC3)C2)n1 (stereo not drawn)
10 to 100 | CC(=O)N1CCC(C2CC(c3cc(C(=O)NCc4ccc(F)cc4)nc(C)n3)=NO2)CC1 (stereo not drawn)
10 to 100 | COc1cccc(CNC(=O)c2cc(C3=NOC(C4CCN(C(C)=O)CC4)C3)nc(C)n2)c1 (stereo not drawn)
10 to 100 | COc1cccc(CNC(=O)c2cc(C3=NOC(C4CCN(C(=O)CO)CC4)C3)nc(C)n2)c1 (stereo not drawn)
10 to 100 | COc1cc(CNC(=O)c2cc(C3=NOC(C4CCN(C(=O)CN(C)C)CC4)C3)nc(C)n2)ccc1F (stereo not drawn)
< 10 | COc1cc(CNC(=O)c2cc(C3=NOC(C4CCN(S(=O)(=O)C(C)C)CC4)C3)nc(C)n2)ccc1F (stereo not drawn)
10 to 100 | COCC(=O)N1CCC(C2CC(c3cc(C(=O)NCc4ccc(F)c(OC)c4)nc(C)n3)=NO2)CC1 (stereo not drawn)
10 to 100 | COc1cc(CNC(=O)c2cc(C3=NOC(C4CCN(C(=O)C5CCC5)CC4)C3)nc(C)n2)ccc1F (stereo not drawn)
10 to 100 | COc1cc(CNC(=O)c2cc(C3=NOC(C4CCN(C(=O)CNS(C)(=O)=O)CC4)C3)nc(C)n2)ccc1F (stereo not drawn)
10 to 100 | CNC(=O)NCC(=O)N1CCC(C2CC(c3cc(C(=O)NCc4ccc(F)c(OC)c4)nc(C)n3)=NO2)CC1 (stereo not drawn)
< 10 | COc1cc(CNC(=O)c2cc(C3=NOC(C4CCN(C(=O)N(C)CCO)CC4)C3)nc(C)n2)ccc1F (stereo not drawn)
10 to 100 | COc1cc(CNC(=O)c2cc(C3=NOC(C4CCN(C(=O)NC(C)C)CC4)C3)nc(C)n2)ccc1F (stereo not drawn)
< 10 | COc1cc(CNC(=O)c2cc(C3=NOC(C4CCN(S(=O)(=O)c5nccn5C)CC4)C3)nc(C)n2)ccc1F (stereo not drawn)
< 10 | COc1cc(CNC(=O)c2cc(C3=NOC(C4CCN(S(=O)(=O)c5cn(C)cn5)CC4)C3)nc(C)n2)ccc1F (stereo not drawn)
< 10 | COc1cc(CNC(=O)c2cc(C3=NOC(C4CCN(S(=O)(=O)c5cn(C)c(C)n5)CC4)C3)nc(C)n2)ccc1F (stereo not drawn)
< 10 | COc1cc(CNC(=O)c2cc(C3=NOC(C4CCN(S(=O)(=O)c5c(C)noc5C)CC4)C3)nc(C)n2)ccc1F (stereo not drawn)
10 to 100 | COc1cc(CNC(=O)c2cc(C3=NOC(C4CCN(C(=O)Nc5nccs5)CC4)C3)nc(C)n2)ccc1F (stereo not drawn)
< 10 | COc1cc(CNC(=O)c2cc(C3=NOC([C@H]4CC[C@H](CNC(C)=O)CC4)C3)nc(C)n2)ccc1F (stereo partly drawn)
